Source: ChEMBL document CHEMBL1201862, “PubChem BioAssay data set” (2004)
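In this assay, cells in 96-well plates receive the compound at five concentrations for 48 hours. Endpoints are linearly interpolated between the surrounding concentrations. Abbreviation: GI50, concentration required for 50% inhibition of growth.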 Calls of active or inactive are those of the source. Cut-off read from the data, not from the text of the source: active = GI50 up to about 1.1 µM and inactive = higher.

Assays:
Assay in all cases: NCI anticancer screen, dose series, 48 h
[1] = system: 786-0
[2] = system: A498
[3] = system: A549
[4] = system: ACHN
[5] = system: BT-549
[6] = system: CAKI-1
[7] = system: CCRF-CEM
[8] = system: COLO 205
[9] = system: DU-145
[10] = system: EKVX
[11] = system: HCC 2998
[12] = system: HCT-116
[13] = system: HCT-15
[14] = system: HL-60
[15] = system: HOP-62
[16] = system: HOP-92
[17] = system: HT-29
[18] = system: Hs-578T
[19] = system: IGROV-1
[20] = system: K562
[21] = system: KM12
[22] = system: LOX IMVI
[23] = system: M14
[24] = system: MCF7
[25] = system: MDA-MB-231
[26] = system: MDA-MB-435
[27] = system: MDA-N
[28] = system: MOLT-4
[29] = system: Malme-3M
[30] = system: NCI-H226
[31] = system: NCI-H23
[32] = system: NCI-H460
[33] = system: NCI/ADR-RES
[34] = system: OVCAR-3
[35] = system: OVCAR-4
[36] = system: OVCAR-5
[37] = system: OVCAR-8
[38] = system: PC-3
[39] = system: RXF 393
[40] = system: SF-268
[41] = system: SF-295
[42] = system: SF-539
[43] = system: SK-MEL-28
[44] = system: SK-MEL-2
[45] = system: SK-MEL-5
[46] = system: SK-OV-3
[47] = system: SN12C
[48] = system: SNB-19
[49] = system: SNB-75
[50] = system: SW-620
[51] = system: T47D
[52] = system: TK-10
[53] = system: U-251
[54] = system: UACC-257
[55] = system: UACC-62
[56] = system: UO-31

CCOP(=O)(OCC)/C(=C/c1ccccc1)CC(C)=O
GI50 [1]: > 100 µM (inactive) | GI50 [2]: > 100 µM (inactive) | GI50 [3]: > 100 µM (inactive) | GI50 [4]: > 100 µM (inactive) | GI50 [5]: > 100 µM (inactive) | GI50 [6]: > 100 µM (inactive) | GI50 [7]: > 100 µM (inactive) | GI50 [8]: > 100 µM (inactive) | GI50 [9]: > 100 µM (inactive) | GI50 [10]: > 100 µM (inactive) | GI50 [11]: > 100 µM (inactive) | GI50 [12]: > 100 µM (inactive) | GI50 [13]: > 100 µM | GI50 [14]: 22.1 µM (inactive) | GI50 [15]: > 100 µM (inactive) | GI50 [16]: > 100 µM (inactive) | GI50 [17]: > 100 µM (inactive) | GI50 [18]: > 100 µM (inactive) | GI50 [19]: > 100 µM (inactive) | GI50 [20]: > 100 µM (inactive) | GI50 [21]: > 100 µM (inactive) | GI50 [22]: > 100 µM (inactive) | GI50 [23]: > 100 µM (inactive) | GI50 [24]: > 100 µM (inactive) | GI50 [25]: > 100 µM (inactive) | GI50 [26]: > 100 µM (inactive) | GI50 [27]: > 100 µM (inactive) | GI50 [28]: > 100 µM (inactive) | GI50 [29]: > 100 µM (inactive) | GI50 [30]: > 100 µM (inactive) | GI50 [31]: > 100 µM (inactive) | GI50 [32]: > 100 µM (inactive) | GI50 [33]: > 100 µM (inactive) | GI50 [34]: > 100 µM (inactive) | GI50 [35]: > 100 µM (inactive) | GI50 [36]: > 100 µM (inactive) | GI50 [37]: > 100 µM (inactive) | GI50 [38]: > 100 µM (inactive) | GI50 [39]: > 100 µM (inactive) | GI50 [40]: > 100 µM (inactive) | GI50 [41]: > 100 µM (inactive) | GI50 [42]: > 100 µM (inactive) | GI50 [43]: > 100 µM (inactive) | GI50 [44]: > 100 µM (inactive) | GI50 [45]: > 100 µM (inactive) | GI50 [46]: > 100 µM (inactive) | GI50 [47]: > 100 µM (inactive) | GI50 [48]: > 100 µM (inactive) | GI50 [49]: > 100 µM (inactive) | GI50 [50]: > 100 µM (inactive) | GI50 [51]: > 100 µM (inactive) | GI50 [52]: > 100 µM (inactive) | GI50 [53]: > 100 µM (inactive) | GI50 [54]: > 100 µM (inactive) | GI50 [55]: > 100 µM (inactive) | GI50 [56]: > 100 µM (inactive)
